Measurements taken from a melting point compilation (Tetko et al.; mined from patent text by program, amines drawn as free bases though some values may be those of a salt).

First: CC(=O)SCC(Cc1ccccc1)C(=O)Nc1ccc(C(=O)O)c(Cl)c1 (configuration not stated)
Second: O=C(NC(C(=O)NC(CO)COCc1ccccc1)C(Cc1ccccc1)C(=O)O)OCc1ccccc1 (configuration not stated)
The melting point of the first is higher: 145 to 148 °C for the first, 100 to 103 °C for the second.

First: COc1ccc(CSc2nnc(-c3ccc4ncsc4c3)o2)cc1C#N
Second: CCOc1ccc(-c2nnc(C(N)=O)o2)cc1
The melting point of the first is lower: 181 to 182 °C for the first, 188 °C for the second.

First: O=[N+]([O-])c1ccc(/C=C/c2ccccn2)cc1
Second: O=C(Oc1ccc([N+](=O)[O-])cc1)c1cccc2c(Cl)c3ccccc3nc12
The melting point of the first is lower: 136 to 139 °C for the first, 194 to 196 °C for the second.

Compared with CCC(Oc1cc(Cl)cc(Cl)c1)C(=O)NC(C)(C)C#CCCO (configuration not stated), COC(Cc1cc(C)c(OCCc2nc(C(C)(C)C)oc2C)c(C)c1)C(=O)O (configuration not stated) is lower in melting point: 104 to 106 °C for the first, 78 to 80 °C for the second.

First: O[C@@]1(c2ccc(Cl)c(Cl)c2)CCC[C@H]2NCC[C@H]21 (racemic)
Second: O=C1CCC(c2ccc3c(c2)OCO3)CC1
The melting point of the first is higher: 190 to 191 °C for the first, 92 to 93.5 °C for the second.

First: Cc1ccc(OCc2ccccc2)c(C(CCN2CC3CC3(C)C2)c2ccccc2)c1 (configuration not stated)
Second: CC(=O)Nc1nc2cc(CN3CCN(C(c4ccccc4)c4ccccc4)CC3)ccc2n1C
The melting point of the first is lower: 74.9 to 76 °C for the first, 202 °C for the second.

Compared with CC(=O)NC12CC3CC(C)(CC(C)(C3)C1)C2, CN1C(C)(C)CC(O)CC1(C)C is lower in melting point: 113 to 114 °C for the first, 70 to 71 °C for the second.

Compared with COc1cc(-c2nc3ccccc3n2Cc2ccccc2C)cc(OC)c1OC, CCOC(=O)c1ccc(-c2nc(COc3ccc(COc4nn(-c5ccccc5)cc4C=O)cc3OC)c(C)o2)o1 is higher in melting point: 140 °C for the first, 143 to 145 °C for the second.

First: Cc1cc(NC(=O)c2cnn(-c3ccc(C(F)(F)F)cc3)c2C)ccc1N1CCC(N2CCOCC2)CC1
Second: O=C(Nc1ccc(-n2nc(C(F)(F)F)cc2C(F)(F)F)cc1)c1c(F)cccc1Cl
The melting point of the first is higher: 252 to 255 °C for the first, 165 to 167 °C for the second.

First: CC(=O)Oc1ccc(-c2[nH]c3ccc(Cl)cc3c2-c2ccc(S(C)(=O)=O)cc2)cc1
Second: O=C1Nc2cccc(-c3cccc(NC(=O)c4ccc(S(=O)(=O)F)cc4)c3)c2/C1=C/c1ccc[nH]1
The melting point of the first is higher: 248 to 250 °C for the first, 148 to 151 °C for the second.

First: CC(OC(N)=O)c1cc2c3ccccc3n(C)c(=O)n2n1 (configuration not stated)
Second: CC(=O)c1cc(C#N)c(=O)[nH]c1-c1ccccc1
The melting point of the first is lower: 216 to 221 °C for the first, 259 to 261 °C for the second.

First: Fc1c(F)c(F)c(CSc2nc3ccccc3[nH]2)c(F)c1F
Second: Cc1ccc(COc2ncc(F)c(NC(=O)c3ccccc3)n2)cc1
The melting point of the first is higher: 189 to 196 °C for the first, 93 to 95 °C for the second.

First: CC(=CCOc1ccc(OC(C)(C)C(=O)O)cc1)c1ccc(-c2ccccc2)cc1
Second: O=C(CCCCOc1ccc(OCc2ccccc2)cc1)C(F)(F)F
The melting point of the first is higher: 148 to 150 °C for the first, 95.5 to 96 °C for the second.

First: COc1ccc(NC(=O)c2coc(Br)c2)cc1N1CCN(C)CC1
Second: COc1cc2c(cc1O)CCN(Cc1cccc(NS(C)(=O)=O)c1)C2
The melting point of the first is higher: 185 to 187 °C for the first, 99 to 101 °C for the second.

First: C#CCN(C)c1nccc(Oc2ccc(NC(=O)c3cc(F)cc(N4CCCCC4)c3)c3ccccc23)n1
Second: COc1ccccc1-c1cc(S(=O)(=O)c2ccc(N)cc2)cc(N2CCCC2)n1
The melting point of the first is lower: 116 to 117 °C for the first, 217 to 219 °C for the second.

First: COc1ccc(-c2cc3cc(F)c(F)cc3[nH]2)cc1NCc1ccc([N+](=O)[O-])cc1
Second: COc1cccc(CNC(=O)c2nc3cccc(OCc4ccc(-c5nnn[nH]5)cc4)c3c(=O)[nH]2)c1
The melting point of the first is lower: 181 to 182 °C for the first, 227 to 229 °C for the second.

First: C[C@@H](n1cc(-c2ccccc2)nn1)[C@](O)(Cn1cncn1)c1ccc(F)cc1F
Second: CC(C)(c1ccncn1)C(O)(Cn1cncn1)c1ccc(F)cc1F (configuration not stated)
The melting point of the first is higher: 148 to 149 °C for the first, 126 to 127 °C for the second.

First: Nc1cccc(C2NC(=O)Cc3ccccc32)c1 (configuration not stated)
Second: N#CC1=C(C2CC(=O)N(Cc3ccccc3)C2)Nc2n[nH]cc2C1c1ccccc1Cl (configuration not stated)
The melting point of the first is lower: 179 to 180 °C for the first, > 230 °C for the second.

Compared with Cc1cc2occc2c(N2CCN(CC[C@H]3CC[C@H](NC(=O)CC4CCOCC4)CC3)CC2)n1, O=C1CN2Cc3cccc(OCCCC(=O)N(CCO)CCCCC4CCCCC4)c3N=C2N1 is lower in melting point: 212 °C for the first, 110 to 111 °C for the second.

First: CC(C)(C)c1cc(NC(=O)NCCc2ccc([N+](=O)[O-])cc2)cc(C(C)(C)C)c1O
Second: CCOC(=O)c1cc2cc([N+](=O)[O-])ccc2s1
The melting point of the first is higher: 185 to 187 °C for the first, 163 °C for the second.

First: O=[N+]([O-])c1ccc(Oc2ccc(C(F)(F)F)cc2Cl)cc1CCl
Second: CCCc1nn(-c2ccc(C(F)(F)F)cn2)cc1C=O
The melting point of the first is higher: 55 to 60 °C for the first, 52 to 53 °C for the second.

Compared with Cc1cccc(C)c1N1CC(C)N(c2c(C)cccc2C)C1=NC(=O)OCc1ccccc1 (configuration not stated), Nc1cccc(-c2ccc(CCN3CC4C(C3)C4NC(=O)Nc3ccccc3)cc2)n1 (configuration not stated) is higher in melting point: 74 to 75 °C for the first, 192 to 194 °C for the second.

Compared with CCOC(=O)C1=C(c2cccc(Cl)c2Cl)N(C(=O)OCC)C(=O)NC1C (configuration not stated), CC(=O)Nc1c(C(=O)c2cccnc2)[nH]c2cc(Cl)ccc12 is higher in melting point: 140 to 141 °C for the first, 213 to 214 °C for the second.

First: Nc1cccc2c1C(=O)c1c(N)cccc1C2=O
Second: CC(C)(C)C1=NC(=Cc2[nH]c(C(C)(C)C)c3ccccc23)c2ccccc21
The melting point of the first is higher: 272 to 273 °C for the first, 195 °C for the second.

First: OCC1OC(n2cc(Cc3ccc(C4CC4)cc3)c3c(F)cccc32)C(O)C(O)C1O (configuration not stated)
Second: NC(=S)N(O)[C@H]1C[C@@H](c2ccc(F)cc2)C1
The melting point of the first is lower: 110 to 112 °C for the first, 156 to 158 °C for the second.

First: OC(c1cc2ccccc2c2ccccc12)c1cc2ccccc2c2ccccc12
Second: OC(CCl)Cn1c2ccccc2c2cc(-c3ccc4c(c3)c3ccccc3n4CC(O)CCl)ccc21 (configuration not stated)
The melting point of the first is higher: 236 to 238 °C for the first, 152 to 153 °C for the second.

First: CC(=O)c1ccc(-c2ccc(C(C)=O)s2)s1
Second: CC(C)NC(=S)NC(=O)c1ccc(C#N)cc1
The melting point of the first is higher: 235 °C for the first, 156 to 157 °C for the second.

Compared with CCc1cc(Br)cc(C(=O)Nc2ccc(F)cn2)n1, CCN(CC)C(=O)CCc1c[nH]c2ccc(Br)cc12 is higher in melting point: 124 °C for the first, 128 °C for the second.

Compared with CNC(=O)c1ccc(-c2ccc3nnn(C(C)(C)c4ccc5ncccc5c4)c3n2)cc1F, Cc1cccc(-c2[nH]c(C(C)C)nc2-c2cccc(-c3ccc(NC(=O)C(C)(C)O)cc3)c2)n1 is lower in melting point: 171 to 173 °C for the first, 123 to 135 °C for the second.

First: C=CCN1CC(c2ccc(N)cc2F)CCS1(=O)=O (configuration not stated)
Second: CCNC(=NS(=O)(=O)c1ccc(N)cc1)N1CC2(C=N1)CCCC2
The melting point of the first is lower: 96 °C for the first, 141 to 142 °C for the second.

First: COc1cccc(CC(=O)O)c1OCCCc1cn(-c2ccc(C(F)(F)F)cn2)nc1-c1ccccc1
Second: C[C@H](CNC(=O)COc1cc(C(F)(F)F)c2c(-c3ccccc3)nn(C)c2n1)c1ccccc1
The melting point of the first is higher: 134 to 135 °C for the first, 91 to 93 °C for the second.

First: O=C(COc1cccc(-n2nc(-c3ccc(F)cc3)c3cccnc32)c1)NCCO
Second: COc1ccc(C=NNC(=O)COc2ccc(C3=NNC(=O)CC3)cc2Cl)cc1
The melting point of the first is lower: 161 to 163 °C for the first, 220 to 222 °C for the second.

Compared with CCOCc1nc2nccnc2c(=O)[nH]1, Cc1c(-c2ccc(N)cc2)[nH]c2nccnc12 is higher in melting point: 168 to 169 °C for the first, 330 to 332 °C for the second.

First: CCOC(=O)/C=C/c1cnn(C)c1-c1ccoc1
Second: CCOC(=O)NC(CCc1ccccc1)P(C)(=O)O (configuration not stated)
The melting point of the first is lower: 82 to 83 °C for the first, 119 to 125 °C for the second.

First: CC1Oc2ccc([N+](=O)[O-])cc2O1 (configuration not stated)
Second: CNc1nc(S(C)=O)nc(N)c1[N+](=O)[O-] (configuration not stated)
The melting point of the first is lower: 84 to 95 °C for the first, 229 to 234 °C for the second.

Compared with Cc1sc(-c2ccco2)nc1COc1ccc(CCl)cc1, CCOc1cc(COc2nn(-c3ccccc3)cc2/C=C/P(=O)(OCC)OCC)ccc1OCc1nc(-c2ccco2)oc1C is higher in melting point: 115 to 116 °C for the first, 117 to 118 °C for the second.

First: Oc1ccc(-c2cc3cc(O)cc(CBr)c3o2)cc1
Second: COc1cc(-c2cc(-c3ccccn3)no2)cc2oc(=O)c(C)c(C)c12
The melting point of the first is higher: 337 to 339 °C for the first, 193 °C for the second.

Compared with O=c1[nH]cncc1Cc1cccnc1, CS(=O)(=O)c1nc(O)nn1-c1ccccc1 is higher in melting point: 145 to 148 °C for the first, 173 to 175 °C for the second.

First: O=C1c2ccccc2-n2cnc(-c3nc(C4CC4)no3)c2[C@@H]2CCCN12
Second: c1ccc(N2c3ccccc3[C@@H]3CN(CC4CCC4)CC[C@H]32)cc1
The melting point of the first is higher: 211 to 212 °C for the first, 76.5 to 77 °C for the second.

Compared with CN1CC(CC#N)CC2c3cccc4c3C(CN4)CC21 (configuration not stated), CN1C[C@H](CN2CCN(C(c3ccccc3)c3ccccc3)CC2)C[C@@H]2c3cccc4[nH]cc(c34)C[C@H]21 is higher in melting point: 100 to 104 °C for the first, 230 to 233 °C for the second.

First: CNC(=O)N1CC(C)(C)N(C)C(C)(C)CC1=O
Second: CCC(=O)NCCC1=C(C(C)C)Cc2cnc3c(c21)CCO3
The melting point of the first is lower: 111 to 113 °C for the first, 168 to 170 °C for the second.

First: COc1cccc(CN2CCN(C)CC2C2=NCCN2)c1OC (configuration not stated)
Second: COc1cc2c(cc1OC)/C(=C/c1cc(OC)c(OC)c(OC)c1)N(C(=O)C1CCCCC1)CC2
The melting point of the first is lower: 160 to 162 °C for the first, 162 to 164 °C for the second.

CC(NC(=S)N1CCc2c([nH]c3ccccc23)C1c1ccc2c(c1)OCO2)c1ccccc1 (configuration not stated) and COC1(c2cccc(OCc3ccc(-n4ccnc4-c4ccccc4)cc3)c2)CCOCC1 cannot be ordered by melting point: 117 to 121 °C for the first, 117 to 118 °C for the second.

First: COc1ncc(C(F)(F)F)cc1C=NO
Second: COc1cc(C)c(N2C(=O)CS/C2=N/N=C\c2ccc(-c3ncn(-c4ccc(OC(F)(F)F)cc4)n3)cc2)c(C)c1
The melting point of the first is lower: 98 to 104 °C for the first, 188 to 190 °C for the second.

First: CCCCc1ccc(CCCCS(=O)(=O)Cc2cccc(/C=C/c3cccc(NC(=O)CC(CC)(CC)C(=O)O)c3)n2)cc1
Second: CCOC(=O)CCCCCOc1ccc(C(=O)Nc2ccccc2S(=O)(=O)c2ccccc2-c2nnn[nH]2)cc1
The melting point of the first is lower: 155 to 157 °C for the first, 180 to 181 °C for the second.

First: CC(C)(N=NC(C)(C)C(=O)NC1CCCCC1)C(=O)NC1CCCCC1
Second: CCn1cc(C(=O)O)c(=O)c2cc(Cl)c(N3CCCCC3)cc21
The melting point of the first is lower: 116 °C for the first, 230 °C for the second.

First: C=CCSC(c1ccccc1)(c1ccccc1)c1ccccc1
Second: COc1ccc(N2C(=O)N(c3cccc(C#N)c3)c3nc(Nc4ccccc4)ncc3C2C)c(F)c1 (configuration not stated)
The melting point of the first is lower: 99 to 101 °C for the first, 223 to 228 °C for the second.

Compared with C[N+]1([O-])CCC(=C(c2ccsc2)c2ccsc2)CC1 (configuration not stated), CN1CCN(C)c2nc(c3ccccc3n2)NCC2CCCC(CNc3nc1nc1ccccc31)C2 is higher in melting point: 92 to 96 °C for the first, 284 to 285 °C for the second.

Work on CC(C)CN1CC(O)C(O)C(O)C1CO (configuration not stated) yielded a melting point of 192 to 194 °C.
